Where two headings read alike, the source gives them in different places.
Experiments:
K562 cells [1] = assay: MTT cytotoxicity assay, K562; format: cell-based; conditions: Homo sapiens, 48 h, mean ± SD
Method: (§1) Human umbilical vein endothelial cells (purchased from Life Technologies, Carlsbad, CA, USA) were cultured according to the manufacturer’s instructions in Medium 200 supplemented with Low Serum Growth Supplement. 1 × 10^4 cells were seeded on each well on a 96-well plate (Nunc, Roskilde, Denmark). The HeLa (human cervix carcinoma, cat. #93021013), CFPAC (human pancreatic adenocarcinoma, cat. #91112501), K562 (chronic myelogenous leukemia, cat. #89121407), HL-60 (acute myelogenous leukemia, cat. #98070106), and MOLT-4 (Human acute T lymphoblastic leukemia, cat. #85011413) cells were purchased from European Collection of Authenticated Cell Cultures (ECACC). They were cultured in an RPMI 1640 medium supplemented with antibiotics (streptomycin, penicillin) and 10% fetal calf serum (20% for HL60), in a 5% CO2-95% air atmosphere. 7 × 10^3 cells were seeded on each well on a 96-well plate (Nunc). 24 hours later the cells were exposed to the test compounds. The aliquots of stock solutions of the test compounds (freshly prepared in DMSO) were added to the cell cultures to yield final concentrations of 1, 10^−1, 10^−2, 10^−3, 10^−4, and 10^−5 mM. The concentration of DMSO in the cell culture medium was 1%. The IC50 value (the concentration of a test compound required to reduce the cell survival fraction to 50% of the control) was calculated from a dose-response curve and used as a measure of cellular sensitivity to a given treatment. The IC50 values are given as means (± standard deviation (SD)) from 2 independent experiments with 4 technical replicates. The cytotoxicity of all compounds was determined by the MTT (3-(4,5-dimethylthiazol-2-yl)-2,5-diphenyltetrazolium bromide) assay (Sigma, St. Louis, MO, USA). Briefly, after 24 h or 48 h of incubation with a given compound, the cells were treated with the MTT reagent and incubation was continued for 2 h. MTT-formazan crystals were dissolved in 20% SDS and 50% DMF at pH 4.7 and VIS light absorption was measured at 570 and 650 nm on a microplate reader FLUOstar Omega (BMG Labtech, Offenburg, Germany). As a control (100% viability), cells grown in the presence of 1% DMSO were used.

[2] = tested on: HUVEC (human umbilical vein endothelial cells); assay: MTT cytotoxicity assay, HUVEC; format: cell-based; conditions: 48 h, mean ± SD
Method: as §1

HeLa cells [3] = assay: MTT cytotoxicity assay, HeLa; format: cell-based; conditions: Homo sapiens, 48 h, mean ± SD
Method: as §1

ABC50 = ABC50 (Homo sapiens, UniProt Q8NE71); assay: Streptavidin-agarose pull-down from K562 cell lysate with LC-MS-MS/MS and Western blot identification; format: binding; design: endogenous in cells; host or cells: K562 cell lysate
Method: Cells were lysed in TBS buffer containing 1% Triton X-100 and Complete® protease inhibitor cocktail (Roche) for 15 min on ice with occasional vortexing. Insoluble material was centrifuged (12,000 rpm, 15 min, 4 °C) and supernatants were collected. Total protein concentration was measured with DC Protein Assay (Bio-Rad, Hercules, CA, USA). Cell lysates containing 30 µg of total protein were mixed with Laemli buffer supplemented with SDS and β-mercaptoethanol, denatured (10 min, 95 °C) and subjected to sodium dodecyl sulfate polyacrylamide gel electrophoresis (SDS-PAGE) electrophoresis (4% stacking and 10% resolving gels). Resolved proteins were electrotransferred (semi-dry, 90 min, 1.5 mA/cm^2) to a 0.45 µm nitrocellulose membrane (Thermo Scientific, Waltham, MA, USA). Membranes were blocked for 2 hours in TBST buffer (20 mM Tris-HCl pH 7.5, 0.9% NaCl, 0.1% Tween 20) containing 5% BSA (BioShop, Burlington, ON, Canada) and probed with primary antibodies (overnight at 4 °C) diluted in TBST buffer with 0.5% BSA. Tubulin served as a loading control for IB experiments. Anti IKZF3 (rabbit monoclonal, dilution 1:500), anti IKZF1 (rabbit polyclonal, dilution 1:500) were from Abcam. Anti IRF4 (rabbit polyclonal, dilution 1:500) were from Cell Signaling Technology. Anti α-tubulin (mouse monoclonal IgG, 1:1000) was from Sigma Aldrich. Anti ABC50 antibodies (mouse monoclonal ABC5H06, dilution 1:100) was from Abcam. After extensive washing with TBST buffer, membranes were probed with secondary goat anti-rabbit or goat anti-mouse HRP-conjugated IgG (1:5000 in TBST, Santa Cruz Biotech, Dallas, TX, USA) for 45 min at room temperature. Membranes were washed in TBST buffer and the chemiluminescent signal was developed with ECL Plus Western Blotting Substrate (Thermo Scientific) and visualized in Syngene G:Box detection system. Protein bands intensities were analysed using Image Quant (version 5.0, GE Healthcare Life Sciences, Pittsburgh, PA, USA).
300 nmoles of biotinylated 6b was added to 0.6 mL of the high capacity streptavidin agarose resin (Thermo Scientific, Waltham, MA, USA) equilibrated in 50% DMSO and incubated for 2 h (room temperature, gently mixing, total volume 0.7 mL). The K562 cell lysate was prepared in the buffer containing 0.5% NP-40 and supplemented with protease inhibitors coctail (Roche). Next, the beads with immobilized 6b were added to the K562 cell lysate (9 mg of total protein) and incubated for 2 h at 4 °C with gently mixing. As a control, K562 cell lysate incubated with the streptavidin agarose beads was used. After incubation the beads were centrifuged (2000 rpm, 2 min, 4 °C) and washed 6 times with 5 mL of lysis buffer. After the last wash, the beads were resuspended in Laemli buffer and denatured 10 min at 95 °C. Released proteins (40 µL/well) were separated by SDS-PAGE (4% stacking, 8% resolving gel) and silver stained with Pierce Silver Stain Kit (Thermo Scientific, Waltham, MA, USA). Bands of interest were cut out of the gel and digested with trypsin. Tryptic peptides were separated by liquid chromatography (LC) and analyzed by LC-MS-MS/MS with Orbitrap mass spectrometer (Thermo). The sequences of the MS/MS spectra were identified by correlation with the human protein sequence database (Sprot 2016_11, H.) using MASCOT software (version 2.6.2, Matrix Science Inc., Boston, MA, USA) (http://www.matrixscience.com/). The significance threshold was p < 0.05 and ions score or expect cut-off was 22.

MOLT-4 cells = assay: MTT cytotoxicity assay, MOLT-4; format: cell-based; conditions: Homo sapiens, 48 h, mean ± SD
Method: as §1

K562 cells [4] = conditions: 48 h, MTT, mean ± SD; cited from earlier work
[5] = tested on: HUVEC (human umbilical vein endothelial cells); conditions: 48 h, MTT, mean ± SD; cited from earlier work
HL-60 cells = conditions: 48 h, MTT, mean ± SD; cited from earlier work
HeLa cells [6] = conditions: 48 h, MTT, mean ± SD; cited from earlier work
CFPAC cells = assay: MTT cytotoxicity assay, CFPAC; format: cell-based; conditions: Homo sapiens, 48 h, mean ± SD
Method: as §1

K562 cells [7] = assay: Annexin V/PI or 7-AAD flow cytometry of apoptosis, K562; format: cell-based, human; conditions: K562, 5× IC50 (3 10 µM, 6 5 µM, 5 5 µM), staurosporine 1 µM; different incubation times for 3, 6 and 5
Method: The phosphatidylserine on the extracellular side of cell membranes was quantified using an FITC Annexin V Apoptosis Detection Kit I (BD Pharmingen, San Diego, CA, USA) according to the manufacturer’s instruction. 10^6 cells were seeded on a 6-well plate (Nunc). […] The control cells were exposed to 1% DMSO or 1μM staurosporine. After treatment the cells were centrifuged at 700 rpm (120× g) for 5 min, washed twice with cold PBS and then resuspended in 1x binding buffer to a density of 10^6 cells/ml. 100 µL of the resuspended cells was stained in the dark with 5 μl of Annexin V-fluoroscein isothiocyanate (FITC) solution and 10 µL propidium iodide (PI) solution for 15 min at room temperature. The samples were then diluted with 400 μL of a binding buffer and within 1 h analyzed with a flow cytometer (BD FACSCalibur^TM, BD Biosciences, San Jose, CA, USA). After treatment, four populations of cells were assessed: (1) viable (neither apoptotic nor necrotic, Annexin V-FITC and PI negative), (2) apoptotic (Annexin V-FITC positive and PI negative), (3) late apoptotic (Annexin V-FITC and PI positive), and (4) necrotic (Annexin V-FITC negative and PI positive).
0.15 × 10^6 cells/ml were seeded on a 6-well plate (Nunclon, Thermo Fisher Scientific, Waltham, MA, USA). Following 24 h preincubation the cells were treated with either the compound or 1% DMSO (control) for 24 or 48 h. After indicated time, the cells were washed with cold PBS (w/o Mg^2+, Ca^2+), stained with Annexin V (FITC Annexin V Apoptosis Detection Kit with 7-aminoactinomycin D (7-AAD), Biolegend, San Diego, CA, USA) according to manufacturer instructions and analysed using BD FACSCalibur flow cytometer. Obtained Flow Cytometry Standard files were analyzed using BD FACSDiva Software (FACSDiva Version 6.1.3, Becton Dickinson Biosciences, San Jose, CA, USA). The experiment was performed three times in at least two technical replicates.

Sequence of ABC50 (Q8NE71 whole entry): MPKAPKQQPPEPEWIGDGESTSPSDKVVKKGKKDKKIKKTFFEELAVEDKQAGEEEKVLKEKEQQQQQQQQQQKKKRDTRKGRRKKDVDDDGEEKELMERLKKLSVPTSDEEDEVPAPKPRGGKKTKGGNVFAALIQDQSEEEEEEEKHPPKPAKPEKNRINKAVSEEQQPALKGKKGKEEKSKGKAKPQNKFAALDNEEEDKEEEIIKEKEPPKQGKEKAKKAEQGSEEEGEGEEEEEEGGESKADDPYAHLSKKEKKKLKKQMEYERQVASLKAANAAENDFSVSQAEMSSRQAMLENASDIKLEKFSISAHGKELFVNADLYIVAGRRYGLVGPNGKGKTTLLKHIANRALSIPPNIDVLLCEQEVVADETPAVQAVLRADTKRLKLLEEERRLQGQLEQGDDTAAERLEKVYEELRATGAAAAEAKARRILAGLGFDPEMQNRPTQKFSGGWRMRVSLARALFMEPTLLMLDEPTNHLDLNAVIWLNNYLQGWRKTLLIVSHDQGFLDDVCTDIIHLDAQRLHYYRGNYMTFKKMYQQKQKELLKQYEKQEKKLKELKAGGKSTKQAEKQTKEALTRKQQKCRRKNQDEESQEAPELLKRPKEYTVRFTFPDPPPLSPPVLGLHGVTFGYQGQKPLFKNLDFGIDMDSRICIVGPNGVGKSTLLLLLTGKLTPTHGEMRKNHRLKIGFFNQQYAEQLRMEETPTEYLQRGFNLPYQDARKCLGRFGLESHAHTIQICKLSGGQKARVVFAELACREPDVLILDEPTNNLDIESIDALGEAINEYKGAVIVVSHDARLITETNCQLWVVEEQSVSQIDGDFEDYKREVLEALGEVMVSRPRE

SMILES	IC50 (MOLT-4 cells)	IC50 (K562 cells [4])	IC50 [5]	IC50 (HL-60 cells)	IC50 (HeLa cells [6])	also measured
O=C(CCCCC1SCC2NC(=O)NC21)NCC(O)CN1C(=O)C2C(C1=O)C1(c3ccccc3)CC2(c2ccccc2)C(c2ccccc2)=C1c1ccccc1 (stereo not shown) [Compound 6b]	1.5 ± 0.06 µM					IC50 (K562 cells [1]): 7 ± 1.2 µM; IC50 [2]: 3.8 ± 0.22 µM; IC50 (HeLa cells [3]): 64 ± 10 µM; Description of protein identified, band 1 (ABC50; K562 lysate pull-down, SDS-PAGE band No. 1, LC-MS-MS/MS): Talin-1; Description of protein identified, band 2 (ABC50; K562 lysate pull-down, SDS-PAGE band No. 2, LC-MS-MS/MS): ATP-binding cassette sub-family F member 1 (ABCF1 or ABC50); Description of protein identified, band 3 (ABC50; K562 lysate pull-down, SDS-PAGE band No. 3, LC-MS-MS/MS): ABC50; Description of protein identified, band 4 (ABC50; K562 lysate pull-down, SDS-PAGE band No. 4, LC-MS-MS/MS): ABC50; Description of protein identified, band 5 (ABC50; K562 lysate pull-down, SDS-PAGE band No. 5, LC-MS-MS/MS): ABC50; Description of protein identified, band 6 (ABC50; K562 lysate pull-down, SDS-PAGE band No. 6, LC-MS-MS/MS): ABC50; protein identified by mass spectrometry in pulled-down bands (ABC50; K562 lysate, immobilized on streptavidin-agarose, five out of six bands): ABC50 protein was identified and significantly enriched; Western blot analysis of pull-down material for ABC50 (ABC50; K562 lysate, mouse monoclonal anti ABC50 antibodies): confirmed the presence of ABC50
NCC(O)CN1C(=O)C2C(C1=O)C1(c3ccccc3)CC2(c2ccccc2)C(c2ccccc2)=C1c1ccccc1 (stereo not shown) [Compound 6a, 4-[-3-(amino)-2-hydroxypropyl]-1,7,8,9-tetraphenyl-4-azatricyclo[5.2.1.0^2,6]dec-8-ene-3,5-dione]	5 ± 0.59 µM					IC50 (K562 cells [1]): 12 ± 1.5 µM; IC50 [2]: > 100 µM; IC50 (HeLa cells [3]): 20 ± 1.9 µM
Nc1ccn([C@@H]2O[C@H](CO)[C@@H](O)[C@@H]2O)c(=O)n1 [cytarabine, reference compound]		300 ± 19 µM	> 1000 µM	300 ± 18 µM	> 1000 µM	
COc1cccc2c1C(=O)c1c(O)c3c(c(O)c1C2=O)C[C@@](O)(C(=O)CO)C[C@@H]3O[C@H]1C[C@H](N)[C@H](O)[C@H](C)O1 [doxorubicin, reference compound]		0.15 ± 0.01 µM	0.1 ± 0.03 µM	0.15 ± 0.03 µM	0.5 ± 0.01 µM	
CCC12C(=O)C(CC)(C(c3ccccc3)=C1c1ccccc1)C1C(=O)N(CCCN(C)C)C(=O)C12 (stereo not shown) [Compound 4]	30 ± 2 µM	8 ± 0.53 µM	> 100 µM	> 100 µM	> 100 µM	IC50 (CFPAC cells): > 1000 µM
CN[C@@H]1C[C@H]2O[C@@](C)([C@@H]1OC)n1c3ccccc3c3c4c(c5c6ccccc6n2c5c31)C(=O)NC4 [staurosporine, reference compound]						apoptotic cells, early (LR) and late (UR) (K562 cells [7]): about 25%
CC(C)C[C@H](NC(=O)[C@H](Cc1ccccc1)NC(=O)c1cnccn1)B(O)O [bortezomib, reference compound]		0.04 ± 0.01 µM	< 0.01 µM	0.3 ± 0.1 µM	0.05 ± 0.01 µM	
CCN(CC)CCN1C(=O)C2C(C1=O)C1(CC)C(=O)C2(CC)C(c2ccccc2)=C1c1ccccc1 (stereo not shown) [Compound 2]	30 ± 2.3 µM	4.5 ± 0.29 µM	> 100 µM	> 100 µM	> 100 µM	IC50 (CFPAC cells): > 1000 µM
CCc1c2c(nc3ccc(OC(=O)N4CCC(N5CCCCC5)CC4)cc13)-c1cc3c(c(=O)n1C2)COC(=O)[C@]3(O)CC [irinotecan, reference compound]		10 ± 0.9 µM	30 ± 3.7 µM	70 ± 2.5 µM	200 ± 11 µM	
CNC(=O)c1cc(Oc2ccc(NC(=O)Nc3ccc(Cl)c(C(F)(F)F)c3)cc2)ccn1 [sorafenib, reference compound]		3 ± 0.3 µM	20 ± 4.1 µM	15 ± 0.6 µM	20 ± 2.6 µM	
CCC12C(=O)C(CC)(C(c3ccccc3)=C1c1ccccc1)C1C(=O)N(CCN(C)C)C(=O)C12 (stereo not shown) [Compound 1]	20 ± 2.7 µM	10 ± 0.59 µM	> 100 µM	> 100 µM	> 100 µM	IC50 (CFPAC cells): > 1000 µM
